Data published in patent US4895842A, “Phenylalanine derivative and proteinase inhibitor” (Shosuke Okamoto, priority 1985, dated 1990).
Where a name gives a salt, the structure may show the parent alone. Read-outs that look alike come from different tables or passages of the source.

Key:
human plasmin [1] = biological target: T1, human plasmin (Homo sapiens, UniProt P00747); assay: biochemical; conditions: read-out: Plasmin S-2251 (I50)
Experimental: An inhibitor sample is dissolved in a 0.05M Tris-hydrochloric acid buffer solution (pH=7.4) to make the total volume of 400 μl. […] Then, 50 μl of a 0.2 casein unit/ml human plasmin is added and the mixture is incubated at a temperature of 37° C. for 4 minutes. Thereafter, the reaction is stopped by adding 50 μl of 50% acetic acid.
Thus, the concentration I50 (μmol) of the inhibitor sample, at which the absorbance is one half (i.e., 1/2) of that obtained in the absence of the inhibitor, is determined.

human plasmin [2] = biological target: T1, human plasmin; assay: Antiplasmin activity: inhibition of fibrin decomposition; format: biochemical; conditions: Table 2; concentration at which fibrin dissolution time is extended twice, pH 7.4, 37° C.; read-out: Plasmin Fibrin (I50)
Experimental: (i) Determination of inhibition activity for fibrin decomposition
An inhibitor sample is dissolved in a 0.18M borate-physiological salt buffer solution (pH=7.4) to make the total volume to 600 μl. To this buffer solution, 200 μl of a 0.2% bovine fibrinogen, 100 μl of a 0.3 casein unit/ml human plasmin solution, and 100 μl of a 50 unit/ml bovine thrombin solution, all dissolved in the above-mentioned buffer, are added at a temperature of 37° C. in a constant temperature bath. Then, the dissolution time of the fibrin mass formed above is determined.

human plasma kallikrein = human plasma kallikrein (Homo sapiens, UniProt P03952); assay: Anti-plasma kallikrein activity: inhibition of S-2302 decomposition; format: biochemical; conditions: S-2302 substrate, read-out: Plasma Kallikrein S-2302 (I50)
human plasma kallikrein, sequence (P03952 391-638 limits assumed): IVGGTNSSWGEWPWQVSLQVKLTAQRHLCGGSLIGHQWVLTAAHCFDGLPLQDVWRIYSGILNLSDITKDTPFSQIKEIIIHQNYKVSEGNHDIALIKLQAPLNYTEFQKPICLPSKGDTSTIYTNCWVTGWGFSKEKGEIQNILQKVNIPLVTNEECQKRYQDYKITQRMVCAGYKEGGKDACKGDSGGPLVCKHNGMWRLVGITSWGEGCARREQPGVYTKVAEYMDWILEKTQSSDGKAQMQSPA
human plasma kallikrein, sequence (P03952 20-390 partner limits assumed): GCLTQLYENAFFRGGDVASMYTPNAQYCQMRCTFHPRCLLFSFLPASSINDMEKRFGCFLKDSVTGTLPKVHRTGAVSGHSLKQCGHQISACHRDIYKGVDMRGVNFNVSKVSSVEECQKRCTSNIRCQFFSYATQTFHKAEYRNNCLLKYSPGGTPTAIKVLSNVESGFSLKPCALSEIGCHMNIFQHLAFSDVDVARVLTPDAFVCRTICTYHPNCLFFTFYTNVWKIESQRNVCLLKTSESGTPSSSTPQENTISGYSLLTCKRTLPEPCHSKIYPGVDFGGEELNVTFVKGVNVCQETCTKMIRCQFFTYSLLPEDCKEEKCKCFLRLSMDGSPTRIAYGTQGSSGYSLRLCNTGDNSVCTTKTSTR
Experimental: Determination of inhibition activity for S-2302 decomposition
An inhibitor sample is dissolved in a 0.05M Tris-hydrochloric acid buffer solution (pH=7.8) to make the total volume to 400 μl. To this solution, 50 μl of a 2 mM S-2302 solution is added and the mixture is incubated at a temperature of 37° C. for 5 minutes in a constant temperature bath. Then, 50 μl of a 0.12 unit/ml human plasma kallikrein is added and the mixture is incubated at a temperature of 37° C. for 5 minutes. Thereafter, 50 μl of 50% acetic acid is added to terminate the reaction. The absorbance of the p-nitroaniline formed in the reaction mixture is measured at 405 nm. Thus, the concentration I50 (μmol) of the inhibitor sample, at which the absorbance is one half (i.e., 1/2) of that obtained in the absence of the inhibitor sample, is determined.

bovine thrombin [3] = biological target: T2, bovine thrombin (Bos taurus, UniProt P00735); assay: Antithrombin activity: inhibition of S-2238 decomposition; format: biochemical
Experimental: (ii) Determination of inhibition activity for S-2238 decomposition
An inhibitor sample is dissolved in a 0.05M Tris-hydrochloric acid buffer solution (pH=8.3) to make a total volume of 400 μl. To this solution, 50 μl of a 0.2 mM S-2238 solution is added and the mixture is incubated at a temperature of 37° C. for 5 minutes in a constant temperature bath. Then, 50 μl of a 0.2 unit/ml bovine thrombin solution is added thereto and the absorbance, at 405 nm, of the p-nitroaniline formed per minute is determined at a temperature of 37° C. by using the so-called initial velocity method. Thus, the concentration I50 (μmol) of the inhibitor sample at which the absorbance is one half (i.e., 1/2) of that obtained in the absence of the inhibitor sample, is determined.

bovine trypsin = biological target: T3, bovine trypsin (Bos taurus, UniProt P00760); assay: Antitrypsin activity: inhibition of S-2238 decomposition; format: biochemical; conditions: S-2238 substrate, read-out: Trypsin S-2238 (I50)
T3 sequence (P00760 24-246): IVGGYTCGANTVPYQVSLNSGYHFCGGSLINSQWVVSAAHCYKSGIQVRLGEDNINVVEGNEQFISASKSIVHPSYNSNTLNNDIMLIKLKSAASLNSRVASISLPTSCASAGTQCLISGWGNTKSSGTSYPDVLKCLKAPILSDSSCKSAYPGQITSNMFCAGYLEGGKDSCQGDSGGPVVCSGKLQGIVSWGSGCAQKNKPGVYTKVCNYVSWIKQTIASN

human urokinase = human urokinase (Homo sapiens, UniProt P00749); assay: biochemical; conditions: S-2444 substrate, read-out: Urokinase S-2444 (I50)
Experimental: Determination of inhibition activity for S-2444 decomposition
An inhibitor sample is dissolved in a 0.05M Tris-hydrochloric acid buffer solution (pH=8.8) to make the total volume to 400 μl. To this solution, 50 μl of a 1 mM S-2444 solution is added and the mixture is incubated at a temperature of 37° C. for 5 minutes in a constant temperature bath. Then, 50 μl of a 500 unit/ml human urokinase is added and the mixture is incubated at a temperature of 37° C. for 5 minutes. Thereafter, 50 μl of 50% acetic acid is added to terminate the reaction. The absorbance of the p-nitroaniline formed in the reaction mixture is measured at 405 nm. Thus, the concentration I50 (μmol) of the inhibitor sample, at which the absorbance is one half (i.e., 1/2) of that obtained in the absence of the inhibitor sample, is determined.

bovine thrombin [4] = biological target: T2, bovine thrombin; assay: Antithrombin activity: inhibition of fibrin formation from fibrinogen; format: biochemical
Experimental: (i) Determination of inhibition activity against fibrin formation
An inhibitor sample is dissolved in a 0.18M borate-physiological salt buffer solution (pH=7.4) to make the total volume to 500 μl. To this solution, 400 μl of a 0.2% bovine fibrinogen solution and 100 μl of a 4 unit/ml bovine thrombin solution are added at a temperature of 37° C. in a constant temperature bath. Thus, a coagulation time is determined. The inhibitor concentration I50 (μmol), at which the coagulation time obtained in the absence of the inhibitor is extended twice, is determined.

[5] = Table 2, S-2238 substrate, pH 8.3, 37° C., read-out: Thrombin S-2238 (I50)

T1 sequence (P00747 581-810 limits assumed): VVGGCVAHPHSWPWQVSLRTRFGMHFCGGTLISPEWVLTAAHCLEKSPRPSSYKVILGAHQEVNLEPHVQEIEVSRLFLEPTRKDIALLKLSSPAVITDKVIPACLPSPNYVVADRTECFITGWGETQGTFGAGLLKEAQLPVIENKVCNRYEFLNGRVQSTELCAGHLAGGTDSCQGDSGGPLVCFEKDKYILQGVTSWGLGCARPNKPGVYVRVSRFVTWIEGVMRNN
T1 sequence (P00747 97-580 partner limits assumed): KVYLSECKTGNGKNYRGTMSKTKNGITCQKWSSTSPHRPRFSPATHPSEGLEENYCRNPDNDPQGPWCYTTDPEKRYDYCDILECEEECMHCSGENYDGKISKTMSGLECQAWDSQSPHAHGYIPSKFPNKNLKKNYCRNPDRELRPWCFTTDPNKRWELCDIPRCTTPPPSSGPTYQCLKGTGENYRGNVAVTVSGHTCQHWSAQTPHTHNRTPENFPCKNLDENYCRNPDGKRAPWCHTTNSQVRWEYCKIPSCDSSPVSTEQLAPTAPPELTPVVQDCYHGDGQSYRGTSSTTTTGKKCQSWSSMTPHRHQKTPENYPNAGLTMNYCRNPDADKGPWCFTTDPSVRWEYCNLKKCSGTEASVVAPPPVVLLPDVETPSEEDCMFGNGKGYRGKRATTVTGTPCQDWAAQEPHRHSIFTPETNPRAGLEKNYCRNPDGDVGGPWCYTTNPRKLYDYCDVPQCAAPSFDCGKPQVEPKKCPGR

SMILES | IC50 (human plasmin [1]) [µM] | IC50 (human plasmin [2]) [µM] | IC50 (human plasma kallikrein; Table 2, pH 7.8, 37° C.) [µM] | IC50 (bovine thrombin [3]; [5]) [µM] | IC50 (bovine trypsin; Table 2, pH 8.1, 37° C.) [µM] | IC50 (human urokinase; Table 2, pH 8.8, 37° C.) [µM] | IC50 (bovine thrombin [4]) [µM] | IC50 (bovine thrombin [3]) [µM] | IC50 (human plasma kallikrein; Table 4, comparative compounds of Table 3, pH 7.8) [µM] | IC50 (bovine thrombin [3]; Table 4, comparative compounds of Table 3, S-2238 substrate, pH 8.3, read-out: Thrombin S-2238 (I50)) [µM] | IC50 (bovine trypsin; Table 4, comparative compounds of Table 3, pH 8.1) [µM] | IC50 (human urokinase; Table 4, comparative compounds of Table 3, pH 8.8) [µM] | IC50 (bovine thrombin [4]; Table 4, comparative compounds of Table 3, coagulation time extended twice, read-out: Thrombin Fibrinogen (I50)) [µM]
NC[C@H]1CC[C@H](C(=O)NC(Cc2ccc(N)cc2)C(=O)Nc2ccc(C(=O)c3ccccc3)cc2)CC1 (stereo partly shown) [compound 33] | 13 | 12 | 8.5 | > 200 | 0.52 | 11 | > 200 |  |  |  |  |  | 
CC(=O)c1ccc(NC(=O)[C@H](Cc2ccc(OCc3cccc(F)c3)cc2)NC(=O)[C@H]2CC[C@H](CN)CC2)cc1 [compound 56] | 1.9 | 0.29 | 0.76 | 500 | 1.2 | 46 | > 100 |  |  |  |  |  | 
CC(=O)c1ccc(NC(=O)[C@H](Cc2ccccc2)NC(=O)[C@H]2CC[C@H](CN)CC2)cc1 [Compound No. 2, N-(trans-4-aminomethylcyclohexylcarbonyl)-L-phenylalanine 4-acetylanilide] |  |  |  | > 1000 | 1.3 |  | > 1000 |  |  |  |  |  | 
CCOC(=O)c1ccc(COc2ccc(C[C@H](NC(=O)[C@H]3CC[C@H](CN)CC3)C(=O)Nc3ccc(C(C)=O)cc3)cc2)cc1 [compound 86] | 0.95 | 0.35 | 0.42 | > 100 | 0.97 | 23 | > 50 |  |  |  |  |  | 
CC(=O)c1ccc(NC(=O)C(Cc2ccc(Oc3cc(Cl)ccc3[N+](=O)[O-])cc2)NC(=O)C2CCC(CN)CC2)cc1 (stereo not shown) [compound 123] | 0.39 | 0.28 | 0.078 | 95 | 0.71 | 26 | > 50 |  |  |  |  |  | 
CC(=O)c1ccc(NC(=O)[C@H](Cc2ccc(OCc3cccc(C#N)c3)cc2)NC(=O)[C@H]2CC[C@H](CN)CC2)cc1 [Compound No. 122, N-(trans-4-aminomethylcyclohexylcarbonyl)-4-(3-cyanobenzyloxy)-L-phenylalanine 4-acetylanilide hydrochloride] | 1.1 | 0.31 | 0.43 | > 200 | 1 | 34 | > 50 |  |  |  |  |  | 
NC[C@H]1CC[C@H](C(=O)N[C@@H](Cc2ccc(OCc3ccccc3)cc2)C(=O)Nc2cccc(Cl)c2)CC1 [compound 36] | 1.7 | 0.41 | 1.2 |  | 0.82 | 100 | > 50 | > 125 |  |  |  |  | 
COc1ccc(C[C@H](NC(=O)[C@H]2CC[C@H](CN)CC2)C(=O)Nc2ccc(C(C)=O)cc2)cc1 [Compound No. 6, N-(trans-4-aminomethylcyclohexylcarbonyl)-4-methoxy-L-phenylalanine 4-acetylanilide] | 1.3 | 4.6 | 2 | 230 | 1.1 | 42 | > 500 |  |  |  |  |  | 
CC(=O)c1ccc(NC(=O)[C@H](Cc2ccc(Oc3ccc([N+](=O)[O-])cn3)cc2)NC(=O)[C@H]2CC[C@H](CN)CC2)cc1 [Compound No. 121, N-(trans-4-aminomethylcyclohexylcarbonyl)-4-(5-nitro-2-pyridyloxy)-L-phenylalanine 4-acetylanilide hydrochloride] | 0.95 | 0.43 | 0.18 | 280 | 0.24 | 19 | > 200 |  |  |  |  |  | 
NC[C@H]1CC[C@H](C(=O)N[C@@H](Cc2ccc(OCc3ccccc3)cc2)C(=O)Nc2ccc(S(N)(=O)=O)cc2)CC1 [Compound No. 47, N-(trans-4-aminomethylcyclohexylcarbonyl)-4-benzyloxy-L-phenylalanine 4-sulfamoylanilide hydrochloride] | 8.9 | 1 | 4.5 | > 400 | 7.5 | 130 | > 200 |  |  |  |  |  | 
NC[C@H]1CC[C@H](C(=O)N[C@@H](Cc2ccc(OCc3ccccc3)cc2)C(=O)Nc2ccncc2)CC1 [compound 40] |  | 0.68 |  | > 1000 | 1.8 |  | > 500 |  |  |  |  |  | 
CC(=O)c1ccc(NC(=O)[C@H](Cc2ccc(OC(=O)OCc3ccccc3Cl)cc2)NC(=O)[C@H]2CC[C@H](CN)CC2)cc1 [compound 145] | 0.56 | 0.075 | 0.75 | 86 |  | 31 | > 50 |  |  |  |  |  | 
NCc1ccc(C(=O)N[C@@H](Cc2ccc(OCc3ccccc3)cc2)C(=O)Nc2ccc(C(=O)O)cc2)cc1 [compound 139] | > 1000 | 190 | > 1000 | > 1000 |  | > 1000 | > 1000 |  |  |  |  |  | 
CC(=O)c1ccc(NC(=O)[C@H](Cc2ccc(OCc3cccc(Cl)c3)cc2)NC(=O)[C@H]2CC[C@H](CN)CC2)cc1 [Compound No. 35, N-(trans-4-aminomethylcyclohexylcarbonyl)-4-(3-chlorobenzyloxy)-L-phenylalanine 4-acetylanilide methane sulfonate] |  | 0.095 |  |  | 1 |  | > 50 | > 100 |  |  |  |  | 
Cc1ccc(NC(=O)[C@H](Cc2ccc(OCc3ccccc3)cc2)NC(=O)[C@H]2CC[C@H](CN)CC2)cc1 [compound 26] | 6.9 | 1.1 | 2.1 | > 100 |  | 560 | > 100 |  |  |  |  |  | 
NC[C@H]1CC[C@H](C(=O)O)CC1 [Table 3 Compound No. 1, tranexamic acid, reference compound] |  |  |  |  |  |  |  |  | > 1000 | > 1000 | > 1000 | > 1000 | > 1000
COc1ccc(NC(=O)[C@H](Cc2ccc(OCc3ccccc3)cc2)NC(=O)c2ccc(CN)cc2)cn1 [compound 140] | 8.8 | 2.5 | 18 |  |  | > 100 | > 200 | > 200 |  |  |  |  | 
NCC1CCC(C(=O)NC(Cc2ccc(OCc3ccccc3)cc2)C(=O)NCc2ccc(F)cc2)CC1 (stereo not shown) [compound 111] | 5.2 | 1.1 | > 50 | > 50 | 5.8 | > 300 |  |  |  |  |  |  | 
